One assay relates to Stat1/3. The assay is described as follows: Inflammation signature quantification of treated PBMC lysates by microfluidic immunoblotting (p-Stat1, p-Stat3). Format: cell-based. The source says: An exemplary procedure for immunoblotting with a device of the present disclosure is as follows. A protein-containing sample is loaded into the wells of a gel (e.g., polyacrylamide gel) and proteins present in the sample are separated by gel electrophoresis (e.g., native gel electrophoresis, SDS-PAGE, etc.). A membrane (e.g., PVDF membrane) is placed atop the gel to allow transfer of the proteins onto the membrane. The membrane is then placed on a glass slide. A microfluidic device is placed on top of membrane, and the microfluidic channels are aligned with the protein lanes. Blocking buffer (e.g., Tween-20 and BSA) is optionally injected in each of the channels. In embodiments with a blocking step, the inlets/outlets of the channels are covered (e.g., with tape) to minimize evaporation during incubation. Antibodies are injected into the appropriate channels (e.g., different antibodies in each microchannel of a set). The inlets/outlets are covered (e.g., with tape) to minimize evaporation during incubation. Following incubation (e.g., 1 hours), the microfluidic device is removed, and the membrane is transferred to a solution of an appropriate secondary antibody (e.g., the membrane is left in this solution for 1 hour, or until the membrane is completely wet). The membrane is removed from the secondary antibody solution and washed with fresh blocking buffer (e.g., 3 minutes, 5 times each). The membrane is transferred to a developing solution (e.g., 30 minutes), and the membrane is removed and rinsed with DI water. The membrane is then allowed to dry. […]
(§1) FIGS. 2A-2B include representative graphs of inflammation signature quantification for PBMC lysates treated with LPS, Heparinase III and LPS+Heparinase III for 2 hours, according to one embodiment of the present disclosure. […]
(§2) FIGS. 3A-3B include representative graphs of inflammation signature quantification for PBMC lysates treated with Hyaluronidase (Hyal), Neuraminidase (Neu) and Spironolactone for 2 hours, according to one embodiment of the present disclosure. […]
For orientation: In western blotting, separated proteins are transferred to a membrane and probed.

The test system of the next assay is p65. The experiment in a line: Inflammation signature quantification of treated PBMC lysates by microfluidic immunoblotting (p-p65). It is filed as cell-based. Conditions: PBMCs treated 2 hours.
Source text: An exemplary procedure for immunoblotting with a device of the present disclosure is as follows. A protein-containing sample is loaded into the wells of a gel (e.g., polyacrylamide gel) and proteins present in the sample are separated by gel electrophoresis (e.g., native gel electrophoresis, SDS-PAGE, etc.). A membrane (e.g., PVDF membrane) is placed atop the gel to allow transfer of the proteins onto the membrane. The membrane is then placed on a glass slide. A microfluidic device is placed on top of membrane, and the microfluidic channels are aligned with the protein lanes. Blocking buffer (e.g., Tween-20 and BSA) is optionally injected in each of the channels. In embodiments with a blocking step, the inlets/outlets of the channels are covered (e.g., with tape) to minimize evaporation during incubation. Antibodies are injected into the appropriate channels (e.g., different antibodies in each microchannel of a set). […]
as §1, §2

In the case of Heparinase III, in the assay on Stat1/3 (PBMCs treated 2 hours, 1.5 U/mL Heparinase III, compared with 1 μg/ml LPS), the “activation of Stat1/3” value is “leads to activation of Stat1/3, although not as much as LPS”. Moreover, in the assay on Stat1/3 (PBMCs, 2 hours, Heparinase III 1.5 U/mL together with LPS 1 μg/ml), the “effect on LPS Stat1/3 response” value is listed as “attenuates LPS Stat1/3 response when done together”. The p65 activation result in the assay with p65 (1.5 U/mL Heparinase III and/or 1 μg/ml LPS) was “increases p65 activation though similar to LPS response”.
Neuraminidase: in the assay on Stat1/3 (PBMCs treated 2 hours, 0.25 U/mL Neuraminidase vs 2 U/mL Hyaluronidase and 100 μM Spironolactone), the Stat1/3 activation result is “increases Stat1/3 and p65 activation as compare to Hyal and Spiro”. Moreover, the p65 activation result in the assay with p65 (0.25 U/mL Neuraminidase vs 2 U/mL Hyaluronidase and 100 μM Spironolactone) was “increases Stat1/3 and p65 activation as compare to Hyal and Spiro”.

Values taken from US20210063391A1, “METHODS AND SYSTEMS FOR BIOCELLULAR MARKER DETECTION AND DIAGNOSIS USING A MICROFLUIDIC PROFILING DEVICE” (The Regents of the University of Michigan, priority 2018, published 2021).
